Source: PMC11012289, “The Discovery of New Inhibitors of Insulin-Regulated Aminopeptidase by a High-Throughput Screening of 400,000 Drug-like Compounds” (International Journal of Molecular Sciences, 2024)
Read-outs that look alike come from different tables or passages of the source. Where no end group is shown, it is not given here. [ ]: non-standard residue; d: D form. Nle = CCCC[C@H](N)C(=O)O

Experiments:
rats = details: cited from earlier work
IRAP [1] = target: IRAP; set-up: method as in PMID 18716029; details: cited from earlier work
[2] = system: APN, ERAP1, ERAP2, and LTA4H; details: cited from earlier work
rodents = system: rodents; set-up: method as in PMID 19233301, PMID 18716029; details: intracerebroventricular administration; cited from earlier work
[3] = system: primary hippocampal neuron cultures; set-up: method as in PMID 26769413, PMID 36286055; details: cited from earlier work
[4] = cited from earlier work
IRAP [5] = details: read-out: Ki (affinity to IRAP); cited from earlier work
[6] = set-up: method as in ELF screening history; details: ref ELF screening history, cited from earlier work; for Enzyme Active: number of ELF enzyme screens in which the compound was active; for Targets active: number of ELF screens in which the compound was active; for Enzyme Active %: share of ELF enzyme targets screened; for Targets Active %: share of all ELF targets screened
IRAP [7] = target: T1, IRAP (Homo sapiens, UniProt Q9UIQ6); experiment: Deselection fluorescence IRAP assay with 10 µM zinc; type: biochemical; details: 10 µM ZnSO4 in assay buffer; for IC50: read-out: Fluorescence + Zn pIC50 (converted)
T1 construct: The screen was performed with the soluble truncated IRAP enzyme; made in house
T1 sequence (Q9UIQ6 155-1025 limits assumed): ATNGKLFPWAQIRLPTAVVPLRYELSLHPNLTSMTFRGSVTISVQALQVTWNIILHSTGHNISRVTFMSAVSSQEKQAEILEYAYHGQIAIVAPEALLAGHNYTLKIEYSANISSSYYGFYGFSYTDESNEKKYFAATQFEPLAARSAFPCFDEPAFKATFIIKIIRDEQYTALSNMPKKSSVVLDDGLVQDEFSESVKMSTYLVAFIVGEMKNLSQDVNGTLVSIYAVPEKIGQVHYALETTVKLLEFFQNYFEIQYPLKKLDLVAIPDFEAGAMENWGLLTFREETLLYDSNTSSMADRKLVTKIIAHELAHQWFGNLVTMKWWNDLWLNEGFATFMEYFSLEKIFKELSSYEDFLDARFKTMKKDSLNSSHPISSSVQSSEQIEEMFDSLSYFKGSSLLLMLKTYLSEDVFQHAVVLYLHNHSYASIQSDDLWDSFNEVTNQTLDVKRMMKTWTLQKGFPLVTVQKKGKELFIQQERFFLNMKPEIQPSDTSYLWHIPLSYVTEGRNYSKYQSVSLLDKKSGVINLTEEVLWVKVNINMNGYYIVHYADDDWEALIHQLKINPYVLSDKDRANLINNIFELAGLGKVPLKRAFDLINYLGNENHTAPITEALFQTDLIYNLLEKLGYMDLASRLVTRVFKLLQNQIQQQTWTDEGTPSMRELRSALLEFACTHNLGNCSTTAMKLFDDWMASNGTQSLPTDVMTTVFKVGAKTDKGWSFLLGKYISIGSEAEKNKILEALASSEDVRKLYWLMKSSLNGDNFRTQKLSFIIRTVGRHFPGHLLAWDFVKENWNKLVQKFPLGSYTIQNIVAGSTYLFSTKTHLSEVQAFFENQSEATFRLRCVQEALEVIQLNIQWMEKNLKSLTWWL

IRAP [8] = target: T1, IRAP; experiment: Thermal shift (TSA) IRAP assay; type: binding; details: screening hits at 30 µM, 1% DMSO
IRAP [9] = target: T1, IRAP; experiment: Orthogonal absorbance IRAP assay (L-Leucine para-nitroanilide cleavage); type: biochemical; details: 1 mM L-Leucine p-Nitroanilide, 120 min RT; for IC50: read-out: Absorbance pIC50 (converted)
Method in brief: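 Absorbance assay: IRAP protein at 2.5 × 10^−4 mg/mL final with 1 mM L-leucine para-nitroanilide in buffer containing 0.05% BSA; 120 min at RT in the dark. para-Nitroaniline read at 405 nm. Dose–response spanned 20 μM–27.4 nM compound, 1% DMSO.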

IRAP [10] = target: T1, IRAP; experiment: Primary fluorescence IRAP assay (L-Leucine-7-amido-4-methylcoumarin cleavage); type: biochemical; details: for Fluorescence pIC50 / IC50: 37.5 µM L-Leucine-7-amido-4-methylcoumarin, 60 min RT, dose-response 20 µM-27.4 nM; for LipE: calculated from (pIC50Fluorescence − LogD)

Compound | IC50 (IRAP [10]; read-out: Fluorescence IC50) [µM] | LipE (IRAP [10]) | IC50 (IRAP [7]) [µM] | ΔTm at 30 µM (IRAP [8]) [°C] | IC50 (IRAP [9]) [µM] | Enzyme Active [6] | Targets active [6] | Enzyme Active % [6] [%] | Targets Active % [6] [%] | further results
Nle-Tyr-Ile-His-Pro-Phe ([Nle]YIHPF) [Nle-Ang IV, structural analog of Ang IV] |  |  |  |  |  |  |  |  |  | effect on memory retention and retrieval (rats): strong promoters of memory retention and retrieval
Leu-Val-Val-Tyr-Pro-Trp-Thr-Gln-Arg-Phe (LVVYPWTQRF; printed: Leu-Val-Val-Tyr-Pro-Trp-Thr-Gln-Arg-Phe) [LVV-hemorphin-7, structural analog of Ang IV] |  |  |  |  |  |  |  |  |  | effect on memory retention and retrieval (rats): strong promoters of memory retention and retrieval
CCOC(=O)C1=C(NC(C)=O)Oc2cc(O)ccc2C1c1cccnc1 (stereo not drawn) [HFI-419] |  |  |  |  |  |  |  |  |  | Ki (IRAP [1]): 0.42 µM; selectivity versus other aminopeptidases [2]: high selectivity; effect on cognition (rodents): cognitive-enhancing effect
N[C@H]1CCSSC[C@@H](C(=O)NCc2ccccc2CC(=O)O)NC(=O)C[C@H](Cc2ccc(O)cc2)NC1=O [HA08] |  |  |  |  |  |  |  |  |  | effect on hydrogen peroxide-induced toxicity [3]: reversed hydrogen peroxide-induced toxicity; effect on spine density [3]: enhanced spine densities
CC[C@H](C)[C@H](NC(=O)[C@H](Cc1ccc(O)cc1)NC(=O)[C@@H](CN)C(C)C)C(=O)N[C@H]1Cc2c([nH]c3ccccc23)CN(CC(=O)N[C@@H](Cc2ccccc2)C(=O)O)C1=O [IVDE77] |  |  |  |  |  |  |  |  |  | metabolic stability [4]: improved metabolic stability
Val-Tyr-Ile-His-Pro-Phe [Ang IV] |  |  |  |  |  |  |  |  |  | Ki (IRAP [5]): 0.062 µM; effect on memory and learning (rats; intracerebroventricular injection): improved memory and learning
CCOC(=O)C1=C(NC(C)=O)Oc2cc(O)ccc2C1c1cnc2ccccc2c1 (stereo not drawn) [HFI-437] |  |  |  |  |  |  |  |  |  | Ki (IRAP [1]): 0.02 µM

Continued, in another order:

IC50 (IRAP [10]; read-out: Fluorescence IC50) [µM] | LipE (IRAP [10]) | IC50 (IRAP [7]) [µM] | ΔTm at 30 µM (IRAP [8]) [°C] | IC50 (IRAP [9]) [µM] | Compound | Enzyme Active [6] | Targets active [6] | Enzyme Active % [6] [%] | Targets Active % [6] [%] | further results
3.98 | 0.29 |  |  |  | Cc1ccc(-c2nc(C3CCCN3C(=O)NCc3ccccc3)n3ccccc23)cc1 (racemic) [QHL36] | 4 | 6 | 7.1 | 5.8 | Fluorescence + Zn pIC50 (IRAP [7]): 5.31; TSA (∆°C), thermal shift of IRAP (IRAP [8]): 0.3 °C; Absorbance pIC50 (IRAP [9]): 5.80; Fluorescence pIC50 (IRAP [10]): 5.40
4.68 | 4.38 | 5.25 | 0.3 | > 20 | O=C1CN(c2cc(=O)n3ccn(Cc4ccc(F)cc4Cl)c3n2)CCN1 [QHL40] | 4 | 6 | 4.3 | 4.2 | 
3.24 | 2.14 | 5.13 | 1.48 | 10.7 | O=C(C1CCCCC1)N1CCC[C@@H]1c1cc(-c2cccnc2)on1 [QHL27] | 4 | 5 | 5.0 | 3.4 | 
3.98 | 1.15 |  |  |  | COc1cc(CN2C(Cc3ccc(S(C)(=O)=O)cc3)CCC2c2cccnc2)cc(OC)c1 (stereo not drawn) [QHL35] | 6 | 8 | 6.8 | 5.5 | Fluorescence + Zn pIC50 (IRAP [7]): 5.34; TSA (∆°C), thermal shift of IRAP (IRAP [8]): 0 °C; Absorbance pIC50 (IRAP [9]): 4.85; Fluorescence pIC50 (IRAP [10]): 5.40
2.82 | 1.83 | 2.95 | 0.3 | 16.2 | CC(C)c1cc(C(=O)N2CCc3n[nH]c(-c4cccs4)c3CC2)[nH]n1 [QHL19] | 4 | 6 | 9.5 | 7.9 | 
10.2 | 3.57 |  |  |  | COCCN1CCc2cnc(NCc3ccc(S(N)(=O)=O)cc3)cc21 [QHL47] | 4 | 6 | 4.7 | 4.2 | Fluorescence + Zn pIC50 (IRAP [7]): 4.99; TSA (∆°C), thermal shift of IRAP (IRAP [8]): 0.3 °C; Absorbance pIC50 (IRAP [9]): 5.51; Fluorescence pIC50 (IRAP [10]): 4.99
1.32 | 3.94 | 1.29 | 4.61 | 3.55 | O=C(NO)C(CS(=O)(=O)N1CCC(c2ccc(F)cc2Cl)CC1)C1CCOCC1 (stereo not drawn) [QHL8] | 4 | 6 | 4.3 | 4.0 | 
4.68 | 0.66 |  |  |  | CCOC(=O)c1c(Cl)cc(C)nc1N1CCCC(Cc2ccc(C(=O)N(C)C)cc2)C1 (stereo not drawn) [QHL39] | 6 | 7 | 7.1 | 4.9 | Fluorescence + Zn pIC50 (IRAP [7]): 5.33; TSA (∆°C), thermal shift of IRAP (IRAP [8]): 0 °C; Absorbance pIC50 (IRAP [9]): 5.12; Fluorescence pIC50 (IRAP [10]): 5.33
2.24 | 2.42 | 2.34 | 0.15 | > 20 | O=C(COCc1ccccc1)N1CCc2n[nH]c(-c3cccs3)c2CC1 [QHL14] | 3 | 5 | 7.3 | 6.6 | 
 | 4.85 | 0.316 | 6.77 | 0.871 | O=C(Cc1ccccc1S(=O)(=O)N1CCc2ccccc2C1)NO [QHL1, 2-(2-((3,4-dihydroisoquinolin-2(1H)-yl)sulfonyl)phenyl)-N-hydroxyacetamide] | 2 | 7 | 2.1 | 4.7 | IC50 (IRAP [10]; read-out: Fluorescence pIC50 (converted)): 0.316 µM
